Patent US20230085307A1, “PYRIDAZINONE COMPOUND AND HERBICIDE” (NISSAN CHEMICAL CORPORATION, priority 2019, published 2023)

Columns and labels:
blackgrass [1] = assay: Test Example 4: herbicidal effect by soil treatment (Table 19, symbol J); type: in vivo, blackgrass (Alopecurus myosuroides); conditions: amount of applied herbicide 320 g/ha
In short: (§1)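 In this soil treatment, the formulated compound reached the seeds only through the soil: seeds were buried about 1.5 cm deep in sterilized diluvial soil, then the diluted emulsion was sprayed over the surface. After three weeks at 25° C. to 30° C. in a greenhouse, effects were graded on criteria from an earlier test.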

rice flat sedge = assay: Test Example 3: herbicidal effect by foliage application, Wagner pot (Table 18, symbol E); type: in vivo, rice flat sedge (Cyperus iria); conditions: 320 g/ha
In short: (§2)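 Plants were sown in alluvial soil held under 0.1–0.5 cm standing water and grown 14 days in a greenhouse at 25–30 °C. An emulsifiable formulation, water-diluted to the set dose, was then sprayed onto the foliage, and effects were scored three weeks later using previously defined criteria.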

barnyard grass [2] = assay: Test Example 3: herbicidal effect by foliage application, Wagner pot (Table 18, symbol H); type: in vivo, barnyard grass (Echinochloa crus-galli); conditions: 320 g/ha
In short: as §2

velvetleaf [3] = assay: Test Example 5: herbicidal effect by foliage application, plastic box (Table 20, symbol M); type: in vivo, velvetleaf (Abutilon theophrasti); conditions: amount of applied herbicide 320 g/ha; foliage application after 14-day growth; evaluated three weeks after application
In short: (§3)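 Plants were sown into sterilized diluvial soil under about 1.5 cm cover and kept in a greenhouse at 25° C. to 30° C. Fourteen days on, foliage received an even spray of the diluted emulsion. Herbicidal or crop effect was judged three weeks afterwards.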

blackgrass [4] = assay: Test Example 5: herbicidal effect by foliage application, plastic box (Table 20, symbol J); type: in vivo, blackgrass (Alopecurus myosuroides); conditions: amount of applied herbicide 320 g/ha; foliage application after 14-day growth; evaluated three weeks after application
In short: as §3

Chinese sprangletop = assay: Test Example 3: herbicidal effect by foliage application, Wagner pot (Table 18, symbol D); type: in vivo, chinese sprangletop (Leptochloa chinensis); conditions: 320 g/ha
In short: as §2

Italian ryegrass [5] = assay: Test Example 4: herbicidal effect by soil treatment (Table 19, symbol K); type: in vivo, Italian ryegrass (Lolium multiflorum); conditions: amount of applied herbicide 320 g/ha
In short: as §1

Italian ryegrass [6] = assay: Test Example 5: herbicidal effect by foliage application, plastic box (Table 20, symbol K); type: in vivo, Italian ryegrass (Lolium multiflorum); conditions: amount of applied herbicide 320 g/ha; foliage application after 14-day growth; evaluated three weeks after application
In short: as §3

chickweed [7] = assay: Test Example 5: herbicidal effect by foliage application, plastic box (Table 20, symbol P); type: in vivo, common chickweed (Stellaria media); conditions: amount of applied herbicide 320 g/ha; foliage application after 14-day growth; evaluated three weeks after application
In short: as §3

green foxtail [8] = assay: Test Example 5: herbicidal effect by foliage application, plastic box (Table 20, symbol G); type: in vivo, green foxtail (Setaria viridis); conditions: amount of applied herbicide 320 g/ha; foliage application after 14-day growth; evaluated three weeks after application
In short: as §3

southern crabgrass [9] = assay: Test Example 5: herbicidal effect by foliage application, plastic box (Table 20, symbol F); type: in vivo, southern crabgrass (Digitaria ciliaris); conditions: amount of applied herbicide 320 g/ha; foliage application after 14-day growth; evaluated three weeks after application
In short: as §3

wild oat [10] = assay: Test Example 4: herbicidal effect by soil treatment (Table 19, symbol I); type: in vivo, wild oat (Avena fatua); conditions: amount of applied herbicide 320 g/ha
In short: as §1

lambsquarters [11] = assay: Test Example 5: herbicidal effect by foliage application, plastic box (Table 20, symbol O); type: in vivo, lambsquarters (Chenopodium album); conditions: amount of applied herbicide 320 g/ha; foliage application after 14-day growth; evaluated three weeks after application
In short: as §3

redroot pigweed [12] = assay: Test Example 5: herbicidal effect by foliage application, plastic box (Table 20, symbol N); type: in vivo, redroot pigweed (Amaranthus retroflexus); conditions: amount of applied herbicide 320 g/ha; foliage application after 14-day growth; evaluated three weeks after application
In short: as §3

velvetleaf [13] = assay: Test Example 4: herbicidal effect by soil treatment (Table 19, symbol M); type: in vivo, velvetleaf (Abutilon theophrasti); conditions: amount of applied herbicide 320 g/ha
In short: as §1

persian speedwell [14] = assay: Test Example 5: herbicidal effect by foliage application, plastic box (Table 20, symbol R); type: in vivo, Persian speedwell (Veronica persica); conditions: amount of applied herbicide 320 g/ha; foliage application after 14-day growth; evaluated three weeks after application
In short: as §3

barnyard grass [15] = assay: Test Example 5: herbicidal effect by foliage application, plastic box (Table 20, symbol H); type: in vivo, barnyard grass (Echinochloa crus-galli); conditions: amount of applied herbicide 320 g/ha; foliage application after 14-day growth; evaluated three weeks after application
In short: as §3

wild oat [16] = assay: Test Example 5: herbicidal effect by foliage application, plastic box (Table 20, symbol I); type: in vivo, wild oat (Avena fatua); conditions: amount of applied herbicide 320 g/ha; foliage application after 14-day growth; evaluated three weeks after application
In short: as §3

persian speedwell [17] = assay: Test Example 4: herbicidal effect by soil treatment (Table 19, symbol R); type: in vivo, Persian speedwell (Veronica persica); conditions: amount of applied herbicide 320 g/ha
In short: as §1

southern crabgrass [18] = assay: Test Example 4: herbicidal effect by soil treatment (Table 19, symbol F); type: in vivo, southern crabgrass (Digitaria ciliaris); conditions: amount of applied herbicide 320 g/ha
In short: as §1

green foxtail [19] = assay: Test Example 4: herbicidal effect by soil treatment (Table 19, symbol G); type: in vivo, green foxtail (Setaria viridis); conditions: amount of applied herbicide 320 g/ha
In short: as §1

windgrass [20] = assay: Test Example 4: herbicidal effect by soil treatment (Table 19, symbol L); type: in vivo, windgrass (Apera spica-venti); conditions: amount of applied herbicide 320 g/ha
In short: as §1

chickweed [21] = assay: Test Example 4: herbicidal effect by soil treatment (Table 19, symbol P); type: in vivo, common chickweed (Stellaria media); conditions: amount of applied herbicide 320 g/ha
In short: as §1

windgrass [22] = assay: Test Example 5: herbicidal effect by foliage application, plastic box (Table 20, symbol L); type: in vivo, windgrass (Apera spica-venti); conditions: amount of applied herbicide 320 g/ha; foliage application after 14-day growth; evaluated three weeks after application
In short: as §3

redroot pigweed [23] = assay: Test Example 4: herbicidal effect by soil treatment (Table 19, symbol N); type: in vivo, redroot pigweed (Amaranthus retroflexus); conditions: amount of applied herbicide 320 g/ha
In short: as §1

barnyard grass [24] = assay: Test Example 4: herbicidal effect by soil treatment (Table 19, symbol H); type: in vivo, barnyard grass (Echinochloa crus-galli); conditions: amount of applied herbicide 320 g/ha
In short: as §1

lambsquarters [25] = assay: Test Example 4: herbicidal effect by soil treatment (Table 19, symbol O); type: in vivo, lambsquarters (Chenopodium album); conditions: amount of applied herbicide 320 g/ha
In short: as §1

CCCC(=O)Oc1c(C)nn(C)c(=O)c1-c1c(-c2ccccc2OC)sc2cc(Cl)c(Cl)cc12 [5-042]
J: blackgrass, herbicidal effect grade (blackgrass [1]): 0 (Herbicidal rate of 5% or less (almost no effect)) | herbicidal effect on rice flat sedge (E) (rice flat sedge): 4 (Herbicidal rate of 70% or more and less than 90%) | herbicidal effect on barnyard grass (H) (barnyard grass [2]): 5 (Herbicidal rate of 90% or more (almost completely withered)) | Herbicidal effect by foliage application, M: velvetleaf (velvetleaf [3]): 5 (Herbicidal rate of 90% or more (almost completely withered)) | Herbicidal effect by foliage application, J: blackgrass (blackgrass [4]): 0 (Herbicidal rate of 5% or less (almost no effect)) | herbicidal effect on Chinese sprangletop (D) (Chinese sprangletop): 2 (Herbicidal rate of 20% or more and less than 40%) | K: Italian ryegrass, herbicidal effect grade (Italian ryegrass [5]): 0 (Herbicidal rate of 5% or less (almost no effect)) | Herbicidal effect by foliage application, K: Italian ryegrass (Italian ryegrass [6]): 0 (Herbicidal rate of 5% or less (almost no effect)) | Herbicidal effect by foliage application, P: chickweed (chickweed [7]): 4 (Herbicidal rate of 70% or more and less than 90%) | Herbicidal effect by foliage application, G: green foxtail (green foxtail [8]): 4 (Herbicidal rate of 70% or more and less than 90%) | Herbicidal effect by foliage application, F: southern crabgrass (southern crabgrass [9]): 0 (Herbicidal rate of 5% or less (almost no effect)) | I: wild oat, herbicidal effect grade (wild oat [10]): 0 (Herbicidal rate of 5% or less (almost no effect)) | Herbicidal effect by foliage application, O: lambsquarters (lambsquarters [11]): 5 (Herbicidal rate of 90% or more (almost completely withered)) | Herbicidal effect by foliage application, N: redroot pigweed (redroot pigweed [12]): 4 (Herbicidal rate of 70% or more and less than 90%) | M: velvetleaf, herbicidal effect grade (velvetleaf [13]): 0 (Herbicidal rate of 5% or less (almost no effect)) | Herbicidal effect by foliage application, R: persian speedwell (persian speedwell [14]): 4 (Herbicidal rate of 70% or more and less than 90%) | Herbicidal effect by foliage application, H: barnyard grass (barnyard grass [15]): 4 (Herbicidal rate of 70% or more and less than 90%) | Herbicidal effect by foliage application, I: wild oat (wild oat [16]): 0 (Herbicidal rate of 5% or less (almost no effect)) | R: persian speedwell, herbicidal effect grade (persian speedwell [17]): 0 (Herbicidal rate of 5% or less (almost no effect)) | F: southern crabgrass, herbicidal effect grade (southern crabgrass [18]): 0 (Herbicidal rate of 5% or less (almost no effect)) | G: green foxtail, herbicidal effect grade (green foxtail [19]): 0 (Herbicidal rate of 5% or less (almost no effect)) | L: windgrass, herbicidal effect grade (windgrass [20]): 0 (Herbicidal rate of 5% or less (almost no effect)) | P: chickweed, herbicidal effect grade (chickweed [21]): 3 (Herbicidal rate of 40% or more and less than 70%) | Herbicidal effect by foliage application, L: windgrass (windgrass [22]): 0 (Herbicidal rate of 5% or less (almost no effect)) | N: redroot pigweed, herbicidal effect grade (redroot pigweed [23]): 3 (Herbicidal rate of 40% or more and less than 70%) | H: barnyard grass, herbicidal effect grade (barnyard grass [24]): 0 (Herbicidal rate of 5% or less (almost no effect)) | O: lambsquarters, herbicidal effect grade (lambsquarters [25]): 1 (Herbicidal rate of 5% or more and less than 20%)
